Measured values published in US11364248B2 (AMGEN INC., priority 2017, dated 2022).
Read-outs that look alike come from different tables or passages of the source.

Columns and labels:
[1] = test system: OPM-2; experiment: Cell Viability Assay (OPM-2 10 FBS); type: cell-based, human; settings: OPM-2 cells, CellTiter-Glo, read-out: OPM-2 10% FBS IC50 IP
Method in brief: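 OPM-2 myeloma cells seeded at 3000 cells/well in RPMI 1640 with 10% FBS and exposed to serially diluted compounds for 16 h at 37° C., 5% CO2.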

[2] = biological target: Mcl-1/Bim interaction (Homo sapiens (Human), UniProt Q07820); experiment: Cell Free Mcl-1: Bim Affinity Assay (Mcl-1 HTRF); type: binding; settings: TR-FRET, recombinant human Mcl-1(171-327), biotin-Bim(51-76); read-out: Mel-1 HTRF IC50
Description: Cell Free Mcl-1: Bim Affinity Assay (Mcl-1 HTRF)
The inhibition of the Mcl-1/Bim interaction was measured using a time-resolved fluorescence resonance energy transfer (TR-FRET) assay. The recombinant human Mcl-1 (C-terminally 6×His tagged Mcl-1 containing residues 171-327) was generated at Amgen Inc (Thousand Oaks, Calif.). A biotinylated peptide derived from human Bim (residues 51-76) was purchased from CPC Scientific (San Jose, Calif.). The TR-FRET assay was conducted in a 384-well white OptiPlate™ (PerkinElmer, Waltham, Mass.) in a total volume of 40 μL. The reaction mixture contained 0.1 nM Mcl-1(171-327), 0.05 nM biotin-Bim(51-76), 0.05 nM LANCER Eu-W1024 Anti-6×His (PerkinElmer), 0.072 nM Streptavidin-Xlent (Cisbio, Bedford, Mass.), and serially diluted test compounds in the binding buffer of 20 mM Hepes, pH 7.5, 150 mM NaCl, 0.016 mM Brij©35, and 1 mM dithiothreitol. Test compounds were pre-incubated with Mcl-1(171-327) and biotin-Bim (51-76) for 60 min before addition of the detection mixture (LANCE Eu-W1024 Anti-6×His and Streptavidin-Xlent). The reaction plates were further incubated overnight and then were read on an Envision® multimode reader (PerkinElmer). Fluorescence signals were measured at 620 nm (40-nm bandwidth) and 665 nm (7.5-nm bandwidth) with a 60 μs delay after excitation at 320 nm (75-nm bandwidth). The signal ratio at 665/620 nm corresponded to the Mcl-1/Bim interaction and was used in all data analyses. The IC50 values of test compounds were determined from duplicate data by analyzing competition curves using a four-parameter sigmoidal model in GraphPad Prism (GraphPad Software, San Diego, Calif.) or in Genedata Screener® (Genedata, Basel, Switzerland).

Mcl-1/Bim interaction, sequence (Q07820 171-327): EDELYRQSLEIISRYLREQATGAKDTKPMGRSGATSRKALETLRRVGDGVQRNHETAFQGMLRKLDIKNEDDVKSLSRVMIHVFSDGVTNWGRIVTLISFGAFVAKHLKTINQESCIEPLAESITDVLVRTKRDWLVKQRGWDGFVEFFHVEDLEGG

| IC50 [2] | SMILES | IC50 ([1]; 16 h) | IC50 ([1]; Homo sapiens, OPM-2, 16 h) |
| --- | --- | --- | --- |
| 0.829 nM | C[C@@H]1[C@@H](C)CCC[C@H]([C@H]2O[C@H]3CNC[C@H]3O2)[C@@H]2CC[C@H]2CN2C[C@@]3(CCCc4cc(Cl)ccc43)COc3ccc(cc32)C(=O)NS1(=O)=O (stereo in doubt) [Example 35, (1S,3′R,6′R,7′R,11′S,12′R)-6-chloro-11′,12′-dimethyl-7′-((2r,3aR,6aS)-tetrahydro-3aH-[1,3]dioxolo[4,5-c]pyrrol-2-yl)-3,4-dihydro-2H,15′H-spiro[naphthalene-1,22′-[20]oxa[13]thia[1,14]diazatetracyclo [14.7.2.0~3,6~.0~19,24~]pentacosa[16,18,24]trien]-15′-one 13′,13′-dioxide] | 304 nM |  |
| 0.657 nM | CC[C@@H]1CCCC[C@H]([C@H]2OC[C@@H](N(C)C)CO2)C2CC[C@H]2CN2C[C@@]3(CCCc4cc(Cl)ccc43)COc3ccc(cc32)C(=O)NS1(=O)=O (stereo in doubt) [Example 73, (1S,3′R,6′S,7′S,12′R)-6-chloro-7′-(cis-5-(dimethylamino)-1,3-dioxan-2-yl)-12′-ethyl-3,4-dihydro-2H,15′H-spiro[naphthalene-1,22′-[20]oxa[13]thia[1,14]diazatetracyclo [14.7.2.0~3,6~.0~19,24~]pentacosa[16,18,24]trien]-15′-one 13′,13′-dioxide] | 915 nM |  |
| 0.196 nM | CC[C@@H]1CCCC[C@H]([C@H]2OC[C@@H](N(C)C)CO2)C2CC[C@H]2CN2C[C@@]3(CCCc4cc(Cl)ccc43)COc3ccc(cc32)C(=O)NS1(=O)=O (stereo in doubt) [Example 74, (1S,3′R,6′S,7′S,12′R)-6-chloro-7′-(cis-5-(dimethylamino)-1,3-dioxan-2-yl)-12′-ethyl-3,4-dihydro-2H,15′H-spiro[naphthalene-1,22′-[20]oxa[13]thia[1,14]diazatetracyclo [14.7.2.0~3,6~.0~19,24~]pentacosa[16,18,24]trien]-15′-one 13′,13′-dioxide] | 108 nM |  |
| 2.65 nM | C[C@H]1CCC[C@H]([C@H]2OC[C@@H](N(C)C)CO2)[C@@H]2CC[C@H]2CN2C[C@@]3(CCCc4cc(Cl)ccc43)COc3ccc(cc32)C(=O)NS(=O)(=O)C1 (stereo in doubt) [Example 77] |  | 595 nM |
| 2.81 nM | C[C@H]1CCC[C@H]([C@H]2OC[C@@H](N(C)C)CO2)[C@@H]2CC[C@H]2CN2C[C@@]3(CCCc4cc(Cl)ccc43)COc3ccc(cc32)C(=O)NS(=O)(=O)C1 (stereo in doubt) [Example 78] | 599 nM |  |
| 1.28 nM | C[C@@H]1[C@@H](C)CCC[C@H](C2OCCO2)[C@@H]2CC[C@H]2CN2C[C@@]3(CCCc4cc(Cl)ccc43)COc3ccc(cc32)C(=O)NS1(=O)=O [Example 3, (1S,3′R,6′R,7′S,11′S,12′R)-6-chloro-7′-(1,3-dioxolan-2-yl)-11′,12′-dimethyl-3,4-dihydro-2H,15′H-spiro[naphthalene-1,22′-[20]oxa[13]thia[1,14]diazatetracyclo [14.7.2.0~3,6~.0~19,24~]pentacosa[16,18,24]trien]-15′-one 13′,13′-dioxide] | 926 nM |  |
| 1.92 nM | C[C@@H]1[C@@H](C)CCC[C@H](C2OCCO2)[C@@H]2CC[C@H]2CN2C[C@@]3(CCCc4cc(Cl)ccc43)COc3ccc(cc32)C(=O)NS1(=O)=O [Example 4, (1S,3′R,6′R,7′S,11′S,12′R)-6-chloro-7′-(1,3-dioxolan-2-yl)-11′,12′-dimethyl-3,4-dihydro-2H,15′H-spiro[naphthalene-1,22′-[20]oxa[13]thia[1,14]diazatetracyclo [14.7.2.0~3,6~.0~19,24~]pentacosa[16,18,24]trien]-15′-one 13′,13′-dioxide] | 2150 nM |  |
| 0.949 nM | C[C@@H]1[C@@H](C)CCC[C@H](C2OCCCO2)[C@@H]2CC[C@H]2CN2C[C@@]3(CCCc4cc(Cl)ccc43)COc3ccc(cc32)C(=O)NS1(=O)=O [Example 7, (1S,3′R,6′R,7′S,11′S,12′R)-6-chloro-7′-(1,3-dioxan-2-yl)-11′,12′-dimethyl-3,4-dihydro-2H,15′H-spiro[naphthalene-1,22′-[20]oxa[13]thia[1,14]diazatetracyclo [14.7.2.0~3,6~.0~19,24~]pentacosa[16,18,24]trien]-15′-one 13′,13′-dioxide] | 1070 nM |  |
| 1.67 nM | C[C@@H]1[C@@H](C)CCC[C@H](C2OCCCO2)[C@@H]2CC[C@H]2CN2C[C@@]3(CCCc4cc(Cl)ccc43)COc3ccc(cc32)C(=O)NS1(=O)=O [Example 8, (1S,3′R,6′R,7′S,11′S,12′R)-6-chloro-7′-(1,3-dioxan-2-yl)-11′,12′-dimethyl-3,4-dihydro-2H,15′H-spiro[naphthalene-1,22′-[20]oxa[13]thia[1,14]diazatetracyclo [14.7.2.0~3,6~.0~19,24~]pentacosa[16,18,24]trien]-15′-one 13′,13′-dioxide] | 7360 nM |  |
| 0.29 nM | C[C@@H]1[C@@H](C)CCC[C@H]([C@H]2OC[C@H](O)CO2)[C@@H]2CC[C@H]2CN2C[C@@]3(CCCc4cc(Cl)ccc43)COc3ccc(cc32)C(=O)NS1(=O)=O [Example 11, (1S,3′R,6′R,7′S,11′S,12′R)-6-chloro-7′-(trans-5-hydroxy-1,3-dioxan-2-yl)-11′,12′-dimethyl-3,4-dihydro-2H,15′H-spiro[naphthalene-1,22′-[20]oxa[13]thia[1,14]diazatetracyclo [14.7.2.0~3,6~.0~19,24~]pentacosa[16,18,24]trien]-15′-one 13′,13′-dioxide] | 260 nM |  |
| 0.382 nM | C[C@@H]1[C@@H](C)CCC[C@H]([C@H]2OC[C@H](O)CO2)[C@@H]2CC[C@H]2CN2C[C@@]3(CCCc4cc(Cl)ccc43)COc3ccc(cc32)C(=O)NS1(=O)=O [Example 12, (1S,3′R,6′R,7′S,11′S,12′R)-6-chloro-7′-(trans-5-hydroxy-1,3-dioxan-2-yl)-11′,12′-dimethyl-3,4-dihydro-2H,15′H-spiro[naphthalene-1,22′-[20]oxa[13]thia[1,14]diazatetracyclo [14.7.2.0~3,6~.0~19,24~]pentacosa[16,18,24]trien]-15′-one 13′,13′-dioxide] | 668 nM |  |
| 0.555 nM | C[C@@H]1[C@@H](C)CCC[C@H]([C@H]2OC[C@H](O)CO2)[C@@H]2CC[C@H]2CN2C[C@@]3(CCCc4cc(Cl)ccc43)COc3ccc(cc32)C(=O)NS1(=O)=O [Example 13, (1S,3′R,6′R,7′S,11′S,12′R)-6-chloro-7′-(trans-5-hydroxy-1,3-dioxan-2-yl)-11′,12′-dimethyl-3,4-dihydro-2H,15′H-spiro[naphthalene-1,22′-[20]oxa[13]thia[1,14]diazatetracyclo [14.7.2.0~3,6~.0~19,24~]pentacosa[16,18,24]trien]-15′-one 13′,13′-dioxide] | 635 nM |  |
| 0.765 nM | C[C@@H]1[C@@H](C)CCC[C@H]([C@H]2OC[C@H](O)CO2)[C@@H]2CC[C@H]2CN2C[C@@]3(CCCc4cc(Cl)ccc43)COc3ccc(cc32)C(=O)NS1(=O)=O [Example 14, (1S,3′R,6′R,7′S,11′S,12′R)-6-chloro-7′-(trans-5-hydroxy-1,3-dioxan-2-yl)-11′,12′-dimethyl-3,4-dihydro-2H,15′H-spiro[naphthalene-1,22′-[20]oxa[13]thia[1,14]diazatetracyclo [14.7.2.0~3,6~.0~19,24~]pentacosa[16,18,24]trien]-15′-one 13′,13′-dioxide] | 1990 nM |  |
